Test results taken from ChEMBL document CHEMBL5291721, “A preclinical secondary pharmacology resource illuminates target-adverse drug reaction associations of marketed drugs” (Nat Commun, 2023).

Legend:
[1] = target: Prostaglandin G/H synthase 1 (Homo sapiens, UniProt P23219); type: functional
[2] = target: Sodium-dependent dopamine transporter (Homo sapiens, UniProt Q01959)
D(1A) dopamine receptor = D(1A) dopamine receptor (Homo sapiens, UniProt P21728)
Estrogen receptor = target: T1, Estrogen receptor (Homo sapiens, UniProt P03372)
T1 sequence (P03372 whole entry): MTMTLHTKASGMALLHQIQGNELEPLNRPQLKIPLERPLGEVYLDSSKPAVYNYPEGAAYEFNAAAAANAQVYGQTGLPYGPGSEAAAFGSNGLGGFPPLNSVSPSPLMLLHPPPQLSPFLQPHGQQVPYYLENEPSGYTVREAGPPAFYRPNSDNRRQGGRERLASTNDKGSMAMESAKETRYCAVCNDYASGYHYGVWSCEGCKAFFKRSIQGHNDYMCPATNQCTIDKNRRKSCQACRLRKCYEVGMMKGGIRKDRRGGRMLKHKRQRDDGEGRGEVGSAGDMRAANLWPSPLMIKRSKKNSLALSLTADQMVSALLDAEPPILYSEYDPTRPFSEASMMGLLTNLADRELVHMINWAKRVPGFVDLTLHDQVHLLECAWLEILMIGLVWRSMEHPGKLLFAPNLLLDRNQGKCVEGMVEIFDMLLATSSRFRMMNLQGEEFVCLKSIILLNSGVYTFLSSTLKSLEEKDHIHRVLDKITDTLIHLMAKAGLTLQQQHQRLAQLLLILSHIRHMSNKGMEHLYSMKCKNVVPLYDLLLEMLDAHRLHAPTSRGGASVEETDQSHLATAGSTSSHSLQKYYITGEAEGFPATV

[3] = target: Sodium-dependent noradrenaline transporter (Homo sapiens, UniProt P23975)
[4] = target: 5-hydroxytryptamine receptor 2B (Homo sapiens, UniProt P41595); type: functional, cell-based
Mu-type opioid receptor = Mu-type opioid receptor (Homo sapiens, UniProt P35372)
Prothrombin = Prothrombin (Homo sapiens, UniProt P00734); type: functional
Thromboxane A2 receptor = target: T2, Thromboxane A2 receptor (Homo sapiens, UniProt P21731); type: functional, cell-based
T2 sequence (P21731 whole entry): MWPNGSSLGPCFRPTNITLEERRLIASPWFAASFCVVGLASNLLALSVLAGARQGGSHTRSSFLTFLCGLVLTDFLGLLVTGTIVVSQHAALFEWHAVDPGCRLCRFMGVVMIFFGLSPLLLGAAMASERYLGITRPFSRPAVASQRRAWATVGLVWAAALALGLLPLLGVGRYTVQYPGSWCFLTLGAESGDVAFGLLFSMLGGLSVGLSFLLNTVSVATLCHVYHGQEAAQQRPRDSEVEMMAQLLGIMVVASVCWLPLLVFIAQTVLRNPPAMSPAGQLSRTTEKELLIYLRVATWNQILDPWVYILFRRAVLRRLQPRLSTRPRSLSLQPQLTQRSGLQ

[5] = target: T3, Alpha-2A adrenergic receptor (Homo sapiens, UniProt P08913)
T3 sequence (P08913 whole entry): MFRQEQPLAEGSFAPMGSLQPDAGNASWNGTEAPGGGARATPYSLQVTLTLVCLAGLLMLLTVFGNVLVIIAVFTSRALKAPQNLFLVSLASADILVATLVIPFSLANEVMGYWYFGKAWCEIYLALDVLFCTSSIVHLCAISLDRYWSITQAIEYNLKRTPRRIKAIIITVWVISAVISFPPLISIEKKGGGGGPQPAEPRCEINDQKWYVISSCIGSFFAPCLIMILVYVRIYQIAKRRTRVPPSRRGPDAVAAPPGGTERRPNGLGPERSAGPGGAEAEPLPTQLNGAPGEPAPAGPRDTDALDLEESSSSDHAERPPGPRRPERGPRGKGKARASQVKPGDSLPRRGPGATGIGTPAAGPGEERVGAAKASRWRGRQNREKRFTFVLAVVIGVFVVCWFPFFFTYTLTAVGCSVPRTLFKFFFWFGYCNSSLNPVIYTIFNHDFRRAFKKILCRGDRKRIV

[6] = target: T4, Amine oxidase [flavin-containing] A (Homo sapiens, UniProt P21397); type: functional
T4 sequence (P21397 whole entry): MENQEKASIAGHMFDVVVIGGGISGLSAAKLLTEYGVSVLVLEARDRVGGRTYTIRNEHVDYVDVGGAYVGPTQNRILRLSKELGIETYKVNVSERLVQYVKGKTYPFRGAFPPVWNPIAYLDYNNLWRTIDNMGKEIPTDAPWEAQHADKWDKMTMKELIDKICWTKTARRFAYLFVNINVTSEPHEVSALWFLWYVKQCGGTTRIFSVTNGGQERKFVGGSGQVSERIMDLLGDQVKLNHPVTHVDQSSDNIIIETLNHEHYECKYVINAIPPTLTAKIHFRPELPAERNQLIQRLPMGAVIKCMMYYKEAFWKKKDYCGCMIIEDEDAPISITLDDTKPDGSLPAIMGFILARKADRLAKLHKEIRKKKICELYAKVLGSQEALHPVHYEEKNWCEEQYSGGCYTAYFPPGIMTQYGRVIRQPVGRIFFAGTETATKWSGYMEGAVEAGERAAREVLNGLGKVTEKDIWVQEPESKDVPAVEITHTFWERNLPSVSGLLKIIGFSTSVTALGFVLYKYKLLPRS

Histamine H3 receptor = Histamine H3 receptor (Homo sapiens, UniProt Q9Y5N1)
[7] = target: T5, Alpha-1A adrenergic receptor (Homo sapiens, UniProt P35348); type: functional, cell-based
T5 sequence (P35348 whole entry): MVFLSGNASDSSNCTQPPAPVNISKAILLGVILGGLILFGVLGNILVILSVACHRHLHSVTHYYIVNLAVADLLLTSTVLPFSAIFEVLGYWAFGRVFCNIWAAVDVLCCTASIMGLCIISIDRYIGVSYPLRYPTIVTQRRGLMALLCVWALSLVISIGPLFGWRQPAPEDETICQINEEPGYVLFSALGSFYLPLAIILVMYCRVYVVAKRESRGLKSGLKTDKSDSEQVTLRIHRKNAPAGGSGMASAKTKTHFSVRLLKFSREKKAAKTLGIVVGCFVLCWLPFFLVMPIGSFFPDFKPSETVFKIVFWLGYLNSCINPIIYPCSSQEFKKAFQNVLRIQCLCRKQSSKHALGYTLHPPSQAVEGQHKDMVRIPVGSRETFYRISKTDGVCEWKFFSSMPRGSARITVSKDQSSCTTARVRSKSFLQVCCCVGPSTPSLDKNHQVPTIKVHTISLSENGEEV

[8] = target: Voltage-gated inwardly rectifying potassium channel KCNH2 (Homo sapiens, UniProt Q12809); type: functional; settings: read-out: AC50
Also: assay procedure not described here.

Chain of D(1A) dopamine receptor (P21728 whole entry): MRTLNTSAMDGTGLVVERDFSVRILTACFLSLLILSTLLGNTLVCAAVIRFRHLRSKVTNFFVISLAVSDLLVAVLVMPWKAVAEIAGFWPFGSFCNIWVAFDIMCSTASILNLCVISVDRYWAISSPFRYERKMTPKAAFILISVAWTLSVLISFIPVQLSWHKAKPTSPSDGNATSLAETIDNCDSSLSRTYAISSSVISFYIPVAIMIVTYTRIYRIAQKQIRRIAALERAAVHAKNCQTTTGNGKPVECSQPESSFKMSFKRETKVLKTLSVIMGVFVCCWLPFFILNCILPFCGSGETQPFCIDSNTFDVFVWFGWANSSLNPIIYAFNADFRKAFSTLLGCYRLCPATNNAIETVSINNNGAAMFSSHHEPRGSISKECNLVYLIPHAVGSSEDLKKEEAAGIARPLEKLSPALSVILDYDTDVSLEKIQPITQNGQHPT
Chain of Sodium-dependent dopamine transporter (Q01959 whole entry): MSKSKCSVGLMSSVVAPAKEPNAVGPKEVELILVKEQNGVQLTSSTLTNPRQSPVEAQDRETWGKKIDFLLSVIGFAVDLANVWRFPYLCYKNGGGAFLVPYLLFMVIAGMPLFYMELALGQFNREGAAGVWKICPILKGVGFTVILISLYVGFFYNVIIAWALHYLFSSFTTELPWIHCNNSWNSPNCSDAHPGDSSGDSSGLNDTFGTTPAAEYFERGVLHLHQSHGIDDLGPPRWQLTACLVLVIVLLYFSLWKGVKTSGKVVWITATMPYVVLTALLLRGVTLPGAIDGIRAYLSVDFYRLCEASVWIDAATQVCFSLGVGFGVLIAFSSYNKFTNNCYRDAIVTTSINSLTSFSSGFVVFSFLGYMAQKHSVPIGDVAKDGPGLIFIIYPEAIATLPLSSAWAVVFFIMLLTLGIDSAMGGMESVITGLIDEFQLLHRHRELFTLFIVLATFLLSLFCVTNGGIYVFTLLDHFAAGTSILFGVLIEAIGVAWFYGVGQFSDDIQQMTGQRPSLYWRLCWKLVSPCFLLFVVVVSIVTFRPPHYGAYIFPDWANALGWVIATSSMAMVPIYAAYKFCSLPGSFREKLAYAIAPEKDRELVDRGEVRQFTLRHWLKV
Chain of Histamine H3 receptor (Q9Y5N1 whole entry): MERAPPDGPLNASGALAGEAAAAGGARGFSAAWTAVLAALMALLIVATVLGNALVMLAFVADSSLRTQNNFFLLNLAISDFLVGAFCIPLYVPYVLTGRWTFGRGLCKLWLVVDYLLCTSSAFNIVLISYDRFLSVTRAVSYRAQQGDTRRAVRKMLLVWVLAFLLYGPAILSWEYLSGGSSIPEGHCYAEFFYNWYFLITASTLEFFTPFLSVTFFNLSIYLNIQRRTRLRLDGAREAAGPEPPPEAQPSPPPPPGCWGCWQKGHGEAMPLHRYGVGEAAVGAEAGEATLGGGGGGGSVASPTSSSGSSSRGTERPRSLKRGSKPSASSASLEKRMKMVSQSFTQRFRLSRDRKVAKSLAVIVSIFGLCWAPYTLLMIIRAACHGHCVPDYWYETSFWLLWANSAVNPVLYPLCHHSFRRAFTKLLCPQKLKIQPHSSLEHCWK
Chain of Prostaglandin G/H synthase 1 (P23219 whole entry): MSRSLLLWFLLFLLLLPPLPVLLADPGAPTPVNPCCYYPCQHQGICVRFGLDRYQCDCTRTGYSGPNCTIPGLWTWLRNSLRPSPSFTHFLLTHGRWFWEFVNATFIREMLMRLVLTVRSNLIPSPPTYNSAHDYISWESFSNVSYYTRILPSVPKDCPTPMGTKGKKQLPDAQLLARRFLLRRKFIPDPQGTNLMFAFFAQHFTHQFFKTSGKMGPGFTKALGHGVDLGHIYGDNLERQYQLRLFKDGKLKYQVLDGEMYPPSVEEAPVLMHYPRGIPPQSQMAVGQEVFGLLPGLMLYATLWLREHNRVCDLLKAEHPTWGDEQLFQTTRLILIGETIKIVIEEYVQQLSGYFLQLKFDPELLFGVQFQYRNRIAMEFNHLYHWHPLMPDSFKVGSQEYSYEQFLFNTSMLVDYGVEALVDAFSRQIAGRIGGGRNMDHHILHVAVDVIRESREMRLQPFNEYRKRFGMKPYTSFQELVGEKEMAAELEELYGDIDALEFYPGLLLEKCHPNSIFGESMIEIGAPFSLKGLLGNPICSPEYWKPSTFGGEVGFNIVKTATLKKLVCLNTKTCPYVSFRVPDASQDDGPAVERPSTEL
Chain of 5-hydroxytryptamine receptor 2B (P41595 whole entry): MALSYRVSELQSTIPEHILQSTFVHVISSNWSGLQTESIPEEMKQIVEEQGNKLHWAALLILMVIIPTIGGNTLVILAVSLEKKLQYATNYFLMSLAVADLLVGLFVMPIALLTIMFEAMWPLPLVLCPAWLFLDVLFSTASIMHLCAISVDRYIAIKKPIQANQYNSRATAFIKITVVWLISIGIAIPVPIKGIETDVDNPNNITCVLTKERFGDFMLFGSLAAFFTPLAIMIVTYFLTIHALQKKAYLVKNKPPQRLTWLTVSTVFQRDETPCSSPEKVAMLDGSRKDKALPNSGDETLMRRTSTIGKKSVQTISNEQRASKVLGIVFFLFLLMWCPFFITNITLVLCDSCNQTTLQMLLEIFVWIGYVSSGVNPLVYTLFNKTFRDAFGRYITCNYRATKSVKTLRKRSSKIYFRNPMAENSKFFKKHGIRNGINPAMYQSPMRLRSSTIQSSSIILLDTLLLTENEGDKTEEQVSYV
Chain of Sodium-dependent noradrenaline transporter (P23975 whole entry): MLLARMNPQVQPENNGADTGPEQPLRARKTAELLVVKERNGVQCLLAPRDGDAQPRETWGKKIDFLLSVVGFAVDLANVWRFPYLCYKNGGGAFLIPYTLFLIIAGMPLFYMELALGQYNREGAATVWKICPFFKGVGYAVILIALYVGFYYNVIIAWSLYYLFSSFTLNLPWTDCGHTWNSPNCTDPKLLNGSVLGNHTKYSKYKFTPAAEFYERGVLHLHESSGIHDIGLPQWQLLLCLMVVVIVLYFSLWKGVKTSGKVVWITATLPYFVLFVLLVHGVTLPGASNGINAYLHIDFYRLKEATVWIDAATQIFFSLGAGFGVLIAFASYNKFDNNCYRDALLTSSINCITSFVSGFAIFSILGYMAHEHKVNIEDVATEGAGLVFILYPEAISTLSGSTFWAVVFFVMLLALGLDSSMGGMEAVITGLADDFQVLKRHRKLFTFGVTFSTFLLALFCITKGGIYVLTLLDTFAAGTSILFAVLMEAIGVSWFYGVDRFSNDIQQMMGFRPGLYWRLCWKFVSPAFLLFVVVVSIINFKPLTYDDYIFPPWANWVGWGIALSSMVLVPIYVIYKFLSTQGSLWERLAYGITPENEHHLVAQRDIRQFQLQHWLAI
Chain of Mu-type opioid receptor (P35372 whole entry): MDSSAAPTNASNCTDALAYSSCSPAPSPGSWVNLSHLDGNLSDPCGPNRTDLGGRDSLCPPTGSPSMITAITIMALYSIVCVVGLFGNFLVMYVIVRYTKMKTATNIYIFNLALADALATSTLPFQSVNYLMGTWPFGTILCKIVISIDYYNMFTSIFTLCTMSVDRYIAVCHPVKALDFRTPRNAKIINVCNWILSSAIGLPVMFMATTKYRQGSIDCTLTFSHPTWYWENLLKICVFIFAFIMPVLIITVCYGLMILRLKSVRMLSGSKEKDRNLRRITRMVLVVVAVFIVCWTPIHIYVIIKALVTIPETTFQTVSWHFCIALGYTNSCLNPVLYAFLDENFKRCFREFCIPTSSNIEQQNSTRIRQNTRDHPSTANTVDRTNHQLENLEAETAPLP
Chain of Voltage-gated inwardly rectifying potassium channel KCNH2 (Q12809 whole entry): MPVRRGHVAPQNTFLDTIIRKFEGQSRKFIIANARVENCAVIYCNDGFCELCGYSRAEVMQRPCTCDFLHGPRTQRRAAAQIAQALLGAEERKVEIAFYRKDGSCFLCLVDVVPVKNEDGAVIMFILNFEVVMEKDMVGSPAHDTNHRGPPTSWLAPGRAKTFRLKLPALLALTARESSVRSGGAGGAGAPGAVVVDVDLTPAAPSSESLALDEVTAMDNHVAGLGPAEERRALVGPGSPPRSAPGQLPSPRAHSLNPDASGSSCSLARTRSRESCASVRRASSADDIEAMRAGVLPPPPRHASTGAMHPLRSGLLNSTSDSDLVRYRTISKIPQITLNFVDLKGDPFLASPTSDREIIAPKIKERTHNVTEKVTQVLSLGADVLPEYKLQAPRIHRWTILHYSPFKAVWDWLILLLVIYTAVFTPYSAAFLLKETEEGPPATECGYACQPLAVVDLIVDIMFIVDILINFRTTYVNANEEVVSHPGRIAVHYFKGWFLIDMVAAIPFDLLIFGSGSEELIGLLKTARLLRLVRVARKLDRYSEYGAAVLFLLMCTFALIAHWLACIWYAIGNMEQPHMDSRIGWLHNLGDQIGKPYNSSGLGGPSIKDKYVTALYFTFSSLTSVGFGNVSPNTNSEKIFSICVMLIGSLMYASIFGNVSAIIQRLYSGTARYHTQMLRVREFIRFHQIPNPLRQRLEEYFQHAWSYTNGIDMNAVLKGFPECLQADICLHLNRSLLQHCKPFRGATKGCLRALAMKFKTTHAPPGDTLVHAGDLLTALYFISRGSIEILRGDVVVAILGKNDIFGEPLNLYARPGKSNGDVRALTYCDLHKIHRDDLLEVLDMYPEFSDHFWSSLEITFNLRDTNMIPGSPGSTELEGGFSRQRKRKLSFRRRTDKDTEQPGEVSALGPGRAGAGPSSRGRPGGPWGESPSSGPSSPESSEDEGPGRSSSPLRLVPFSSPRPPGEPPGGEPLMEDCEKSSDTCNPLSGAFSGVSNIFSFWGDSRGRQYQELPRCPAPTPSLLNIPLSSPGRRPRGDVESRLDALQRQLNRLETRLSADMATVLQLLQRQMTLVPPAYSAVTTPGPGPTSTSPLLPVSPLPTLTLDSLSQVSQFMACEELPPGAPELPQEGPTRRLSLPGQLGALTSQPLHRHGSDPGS

Compound | AC50 [1] | AC50 [2] | AC50 (D(1A) dopamine receptor) | AC50 (Estrogen receptor) | AC50 [3] | AC50 [4] | AC50 (Mu-type opioid receptor) | AC50 (Prothrombin) | AC50 (Thromboxane A2 receptor) | AC50 [5] | AC50 [6] | AC50 (Histamine H3 receptor) | AC50 [7] | AC50 [8]
CCCCCCCC(=O)N[C@H](CN1CCCC1)[C@H](O)c1ccc2c(c1)OCCO2 | 26.5 µM | > 30 µM | > 30 µM | > 30 µM | > 30 µM | > 30 µM | 14.1 µM | > 30 µM | > 30 µM | > 30 µM | > 30 µM | > 30 µM | – | –
CNC(=O)C[C@@H](N)C(=O)N[C@@H](C(=O)N[C@@H]1C(=O)N2[C@@H]1SC(C)(C)[C@@H]2C(=O)O)c1ccc(O)cc1 [ASPOXICILLIN] | > 30 µM | > 30 µM | > 30 µM | > 30 µM | > 30 µM | > 30 µM | > 30 µM | > 30 µM | > 30 µM | > 30 µM | > 30 µM | > 30 µM | > 30 µM | –
O=C(Nc1nc(-c2cc(Cl)cs2)c(N2CCN(C3CCCCC3)CC2)s1)c1cnc(N2CCC(C(=O)O)CC2)c(Cl)c1 [AVATROMBOPAG] | 19.8 µM | > 30 µM | > 30 µM | > 30 µM | > 30 µM | > 30 µM | > 30 µM | > 30 µM | > 30 µM | > 30 µM | > 30 µM | > 30 µM | – | 12.4 µM
Cc1nnc(SCC2=C(C(=O)O)N3C(=O)[C@@H](NC(=O)Cn4cc(Cl)c(=O)c(Cl)c4)[C@H]3SC2)s1 [CEFAZEDONE] | 24.8 µM | > 30 µM | > 30 µM | > 30 µM | > 30 µM | > 30 µM | > 30 µM | > 30 µM | > 30 µM | > 30 µM | > 30 µM | > 30 µM | > 30 µM | –
CO[C@@]1(NC(=O)CSCC#N)C(=O)N2C(C(=O)O)=C(CSc3nnnn3C)CS[C@@H]21 [CEFMETAZOLE] | > 30 µM | > 30 µM | > 30 µM | > 30 µM | > 30 µM | > 30 µM | > 30 µM | > 30 µM | > 30 µM | > 30 µM | > 30 µM | > 30 µM | – | > 30 µM
O=C(O)CC(O)(CC(=O)O)C(=O)O [CITRIC ACID] | > 30 µM | > 30 µM | > 30 µM | > 30 µM | > 30 µM | > 30 µM | > 30 µM | > 30 µM | > 30 µM | > 30 µM | > 30 µM | > 30 µM | > 30 µM | –
